Assays:
[1] = test system: 24bcl (DNA, G4) CGGGCGCGGGAGGAAGGGGGCGGG; assay: competitive dialysis; conditions: 185 mM KCl, 185 mM NaCl; sodium phosphate, 1 mM EDTA, pH 7, room temperature; 50 μM DNA, 1 μM compound
[2] = test system: cmyc (DNA, G4) GGGGAGGGTGGGGAGGGTGGGGAAGGTGGGG; assay: fluorescence titration, Equispec fit; conditions: 185 mM K+, 185 mM Na+ (as KCl, NaCl); sodium phosphate, 1 mM EDTA, pH 7, 25 °C; excitation 252 nm; 0.2 μM compound
[3] = test system: Ds26 (DNA, duplex) CAATCGGATCGAATTCGATCCGATTG; assay: competitive dialysis; conditions: 185 mM KCl, 185 mM NaCl; sodium phosphate, 1 mM EDTA, pH 7, room temperature; 50 μM DNA, 1 μM compound
[4] = test system: TC triplex (DNA, triplex) CCTCCTCTCTTTCCCTTTTTCTTTCTCTCCTCC/GAAAGAGAGGAGG; assay: competitive dialysis; conditions: 185 mM KCl, 185 mM NaCl; sodium phosphate, 1 mM EDTA, pH 7, room temperature; 50 μM DNA, 1 μM compound
[5] = test system: Dickerson (DNA, duplex) CGCGAATTCGCG; assay: fluorescence titration; conditions: 185 mM K+, 185 mM Na+ (as KCl, NaCl); sodium phosphate, 1 mM EDTA, pH 7, 25 °C; up to 10 μM DNA, 0.2 μM compound
[6] = test system: HT24 (DNA, G4) TAGGGTTAGGGTTAGGGTTAGGGT; assay: fluorescence titration, Equispec fit; conditions: 185 mM K+, 185 mM Na+ (as KCl, NaCl); sodium phosphate, 1 mM EDTA, pH 7, 25 °C; excitation 252 nm; 0.2 μM compound
[7] = test system: 24bcl (DNA, G4) CGGGCGCGGGAGGAAGGGGGCGGG; assay: fluorescence titration, Equispec fit; conditions: 185 mM K+, 185 mM Na+ (as KCl, NaCl); sodium phosphate, 1 mM EDTA, pH 7, 25 °C; excitation 252 nm; 0.2 μM compound
[8] = test system: cmyc (DNA, G4) GGGGAGGGTGGGGAGGGTGGGGAAGGTGGGG; assay: competitive dialysis; conditions: 185 mM KCl, 185 mM NaCl; sodium phosphate, 1 mM EDTA, pH 7, room temperature; 50 μM DNA, 1 μM compound

SMILES | binding [1] | log K [2] | binding [3] | binding [4] | binding [5] | log K [6] | log K [7] | binding [8]
CC(=O)NCCN(CC(=O)NCCN(CC(=O)NCCN(CC(=O)NCCCCCCO)C(=O)CNC(=O)c1c2ccccc2nc2ccccc12)C(=O)CNC(=O)c1c2ccccc2nc2ccccc12)C(=O)CNC(=O)c1c2ccccc2nc2ccccc12 | yes | 5.3 ± 0.2 | – | – | – | – | – | –
CC(=O)NCCN(CC(=O)NCCN(CC(=O)NCCCCCCOC(=O)CCC(=O)N(C)CC(N)=O)C(=O)CNC(=O)c1c2ccccc2nc2ccccc12)C(=O)CNC(=O)c1c2ccccc2nc2ccccc12 | – | 5.5 ± 0.3 | no | weak | no | 4.9 ± 0.4 | 6.8 ± 0.5 | –
O=C(O)CNC(=O)c1c2ccccc2nc2ccccc12 | yes | – | weak | – | – | – | – | yes
O=C(O)c1c2ccccc2nc2ccccc12 | – | – | yes | – | – | – | – | –
CC(=O)NCCN(CC(=O)NCCN(CC(=O)NCCN(CC(=O)NCCCCCCOC(=O)CCC(=O)N(C)CC(N)=O)C(=O)CNC(=O)c1c2ccccc2nc2ccccc12)C(=O)CNC(=O)c1c2ccccc2nc2ccccc12)C(=O)CNC(=O)c1c2ccccc2nc2ccccc12 | – | 4.8 ± 0.5 | – | – | – | 5.3 ± 0.3 | 5.3 ± 0.2 | –
CC(=O)NCCN(CC(=O)NCCN(CC(=O)NCCCCCCO)C(=O)CNC(=O)c1c2ccccc2nc2ccccc12)C(=O)CNC(=O)c1c2ccccc2nc2ccccc12 | – | 4.9 ± 0.2 | – | – | – | 4.6 ± 0.5 | 5.1 ± 0.1 | –

— paper PMC2915818 (2010)
